In PubChem BioAssay AID1259407 (Chemical Carcinogenesis Research Information System (CCRIS), 2018):
“Also recorded” adds a separate entry of the source. The source made the active and inactive calls. How the calls were made is not given here.

Test system: CCRIS mutagenicity, Ames/micronucleus/aberration tests
Assay: CCRIS mutagenicity studies
[1] = End Point: IN VITRO CHROMOSOMAL ABERRATIONS, Test System: CHL CELLS, Metabolic Activation: NONE
[2] = End Point: IN VITRO CHROMOSOMAL ABERRATIONS, Test System: CHL CELLS, Metabolic Activation: RAT, LIVER, S-9, SODIUM PHENOBARBITAL AND 5,6-BENZOFLAVONE
[3] = Test System: AMES SALMONELLA TYPHIMURIUM, Strain/Indicator: TA98, Metabolic Activation: NONE, Method: PREINCUBATION
[4] = Test System: AMES SALMONELLA TYPHIMURIUM, Strain/Indicator: TA100, Metabolic Activation: NONE, Method: PREINCUBATION
[5] = Test System: AMES SALMONELLA TYPHIMURIUM, Strain/Indicator: TA98, Metabolic Activation: NONE, Method: STANDARD PLATE
[6] = Test System: AMES SALMONELLA TYPHIMURIUM, Strain/Indicator: TA100, Metabolic Activation: NONE, Method: STANDARD PLATE

With `Clc1ccc(C(Cl)(Cl)Cl)cc1` the mutagenic call [1] was “active; positive (structural changes)”, the mutagenic call [2] was “active; positive (structural changes)” and the mutagenic call [3] was “inactive; negative”. The mutagenic call (Test System: AMES SALMONELLA TYPHIMURIUM, Strain/Indicator: TA98, Metabolic Activation: RAT LIVER S-9, PHENOBARBITAL AND BETA-NAPHTHOFLAVONE, Method: PREINCUBATION) was “active; positive”, the mutagenic call [4] was “inactive; negative” and the mutagenic call (Test System: AMES SALMONELLA TYPHIMURIUM, Strain/Indicator: TA100, Metabolic Activation: RAT LIVER S-9, PHENOBARBITAL AND BETA-NAPHTHOFLAVONE, Method: PREINCUBATION) was “active; positive”. The mutagenic call (Test System: AMES SALMONELLA TYPHIMURIUM, Strain/Indicator: TA1535, Metabolic Activation: NONE, Method: PREINCUBATION) was “inactive; negative”, the mutagenic call (Test System: AMES SALMONELLA TYPHIMURIUM, Strain/Indicator: TA1535, Metabolic Activation: RAT LIVER S-9, PHENOBARBITAL AND BETA-NAPHTHOFLAVONE, Method: PREINCUBATION) was “active; positive” and the mutagenic call (Test System: AMES SALMONELLA TYPHIMURIUM, Strain/Indicator: TA1537, Metabolic Activation: NONE, Method: PREINCUBATION) was “inactive; negative”. For the same compound, the mutagenic call (Test System: AMES SALMONELLA TYPHIMURIUM, Strain/Indicator: TA1537, Metabolic Activation: RAT LIVER S-9, PHENOBARBITAL AND BETA-NAPHTHOFLAVONE, Method: PREINCUBATION) was “active; positive”, the mutagenic call (Test System: AMES SALMONELLA TYPHIMURIUM, Strain/Indicator: TA1538, Metabolic Activation: NONE, Method: PREINCUBATION) was “inactive; negative” and the mutagenic call (Test System: AMES SALMONELLA TYPHIMURIUM, Strain/Indicator: TA1538, Metabolic Activation: RAT LIVER S-9, PHENOBARBITAL AND BETA-NAPHTHOFLAVONE, Method: PREINCUBATION) was “inactive; negative”. For the same compound, the mutagenic call (Test System: E.COLI, Strain/Indicator: WP2UVRA, Metabolic Activation: NONE, Method: PREINCUBATION) was “inactive; negative” and the mutagenic call (Test System: E.COLI, Strain/Indicator: WP2UVRA, Metabolic Activation: RAT LIVER S-9, PHENOBARBITAL AND BETA-NAPHTHOFLAVONE, Method: PREINCUBATION) was “active; positive”.
For `Nc1nc(NO)c2[nH]cnc2n1`, the mutagenic call (Test System: AMES SALMONELLA TYPHIMURIUM, Strain/Indicator: HISG46, Metabolic Activation: NONE, Method: STANDARD PLATE) was “active; positive”, the mutagenic call [5] was “inactive; negative” and the mutagenic call (Test System: AMES SALMONELLA TYPHIMURIUM, Strain/Indicator: TA100(1,8-DNP6), Metabolic Activation: NONE, Method: PREINCUBATION) was “active; positive”. The mutagenic call (Test System: AMES SALMONELLA TYPHIMURIUM, Strain/Indicator: TA100(NR), Metabolic Activation: NONE, Method: PREINCUBATION) was “active; positive”, the mutagenic call [4] was “active; positive” and the mutagenic call [6] was “active; positive”. For the same compound, the mutagenic call (Test System: AMES SALMONELLA TYPHIMURIUM, Strain/Indicator: TA100, Metabolic Activation: RAT, LIVER, S-9, KANECHLOR 500, Method: PREINCUBATION) was “active; positive”, the mutagenic call (Test System: AMES SALMONELLA TYPHIMURIUM, Strain/Indicator: TA1950, Metabolic Activation: NONE, Method: STANDARD PLATE) was “active; positive” and the mutagenic call (Test System: CHINESE HAMSTER OVARY, Strain/Indicator: CHO-K1-BH4 (HGPRT), Metabolic Activation: NONE, Method: SUSPENSION) was “active; positive”. The mutagenic call (Test System: E. COLI, Strain/Indicator: CM871, Metabolic Activation: NONE, Method: STANDARD PLATE) was “active; positive”, the mutagenic call (Test System: E. COLI, Strain/Indicator: WP2, Metabolic Activation: NONE, Method: STANDARD PLATE) was “active; positive” and the mutagenic call (Test System: E. COLI, Strain/Indicator: WP2S, Metabolic Activation: NONE, Method: STANDARD PLATE) was “active; positive”. The mutagenic call (Test System: E. COLI, Strain/Indicator: WP2 UVRA, Metabolic Activation: NONE, Method: STANDARD PLATE) was “active; positive”, the mutagenic call (Test System: MOUSE LYMPHOMA, Strain/Indicator: L5178Y (TK+/TK-)/6-THIOGUANINE, Metabolic Activation: NONE, Method: SUSPENSION) was “active; positive” and the mutagenic call (Test System: MOUSE LYMPHOMA, Strain/Indicator: L5178Y (TK+/TK-)/6-THIOGUANINE, Metabolic Activation: NONE, Method: SUSPENSION IN TRAYS) was “active; positive”. For the same compound, the mutagenic call (Test System: MOUSE LYMPHOMA, Strain/Indicator: L5178Y (TK+/TK-)/OUABAIN, Metabolic Activation: NONE, Method: SUSPENSION) was “active; positive”, the mutagenic call (Test System: MOUSE LYMPHOMA, Strain/Indicator: L5178Y (TK+/TK-)/OUABAIN, Metabolic Activation: NONE, Method: SUSPENSION IN TRAYS) was “active; positive” and the mutagenic call (Test System: MOUSE LYMPHOMA, Strain/Indicator: L5178Y (TK+/TK-)/TRIFLUOROTHYMIDINE, Metabolic Activation: NONE, Method: SUSPENSION) was “active; positive”. For the same compound, the mutagenic call (Test System: MOUSE LYMPHOMA, Strain/Indicator: L5178Y (TK+/TK-)/TRIFLUOROTHYMIDINE, Metabolic Activation: NONE, Method: SUSPENSION IN TRAYS) was “active; positive” and the mutagenic call (Test System: MOUSE LYMPHOMA, Strain/Indicator: L5178Y (TK+/TK-), Metabolic Activation: NONE, Method: SUSPENSION/PLATE) was “active; positive”.
With `CC1(C)Cc2cccc(O)c2O1` the mutagenic call (End Point: IN VIVO MICRONUCLEUS, Test System: BONE MARROW POLYCHROMATIC ERYTHROCYTES, Species: MOUSE, Strain/Sex: KM/MALE, FEMALE, Route: IP INJECTION) was “inactive; negative”.
`O=c1c2[nH]c3ccccc3c2nnn1/N=C/c1ccc(O)cc1` was tested, and the mutagenic call (Test System: AMES SALMONELLA TYPHIMURIUM, Strain/Indicator: TA97, Metabolic Activation: NONE, Method: PREINCUBATION) was “active; positive”, the mutagenic call (Test System: AMES SALMONELLA TYPHIMURIUM, Strain/Indicator: TA97, Metabolic Activation: RAT, LIVER, S-9, AROCLOR 1254 (10%), Method: PREINCUBATION) was “active; positive” and the mutagenic call [3] was “active; positive”. The mutagenic call (Test System: AMES SALMONELLA TYPHIMURIUM, Strain/Indicator: TA98, Metabolic Activation: RAT, LIVER, S-9, AROCLOR 1254 (10%), Method: PREINCUBATION) was “active; positive”, the mutagenic call [4] was “active; positive” and the mutagenic call (Test System: AMES SALMONELLA TYPHIMURIUM, Strain/Indicator: TA100, Metabolic Activation: RAT, LIVER, S-9, AROCLOR 1254 (10%), Method: PREINCUBATION) was “active; positive”. For the same compound, the mutagenic call (Test System: AMES SALMONELLA TYPHIMURIUM, Strain/Indicator: TA102, Metabolic Activation: NONE, Method: PREINCUBATION) was “active; positive” and the mutagenic call (Test System: AMES SALMONELLA TYPHIMURIUM, Strain/Indicator: TA102, Metabolic Activation: RAT, LIVER, S-9, AROCLOR 1254 (10%), Method: PREINCUBATION) was “active; positive”.
With `O=P1(N(CCCl)CCCl)NC(OO)CCO1` (configuration not stated) the mutagenic call (Test System: UDS HUMAN LYMPHOCYTES, Strain/Indicator: THY INCORP (NON-S-PHASE), Metabolic Activation: NONE, Method: LIQUID SCINTILLATION COUNTING) was “active; positive”.
For `Clc1ccc(C(Cl)c2ccccn2)cc1` (configuration not stated), the mutagenic call [1] was “inactive; negative; test chemical precipitated at 0.2 mg/ml; toxic at 0.3 mg/ml (metaphase; also recorded: active; positive (structural changes); 0.30 mg/ml was toxic; metaphase cell division not” and the mutagenic call [2] was “active; positive (structural changes); test chemical precipitated at 2 highest of 4 dose”.
`Cn1cnc(-c2ccccc2)c1N=O` was tested, and the mutagenic call [6] was “active; positive”.
For `CC(C)c1cc(N)c([N+](=O)[O-])cc1N`, the mutagenic call [5] was “inactive; negative”, the mutagenic call (Test System: AMES SALMONELLA TYPHIMURIUM, Strain/Indicator: TA98, Metabolic Activation: RAT, LIVER, S-9, AROCLOR 1254, Method: STANDARD PLATE) was “active; positive” and the mutagenic call [6] was “inactive; negative”. For the same compound, the mutagenic call (Test System: AMES SALMONELLA TYPHIMURIUM, Strain/Indicator: TA100, Metabolic Activation: RAT, LIVER, S-9, AROCLOR 1254, Method: STANDARD PLATE) was “inactive; negative”, the mutagenic call (Test System: AMES SALMONELLA TYPHIMURIUM, Strain/Indicator: TA1535, Metabolic Activation: NONE, Method: STANDARD PLATE) was “inactive; negative” and the mutagenic call (Test System: AMES SALMONELLA TYPHIMURIUM, Strain/Indicator: TA1535, Metabolic Activation: RAT, LIVER, S-9, AROCLOR 1254, Method: STANDARD PLATE) was “inactive; negative”. The mutagenic call (Test System: AMES SALMONELLA TYPHIMURIUM, Strain/Indicator: TA1537, Metabolic Activation: NONE, Method: STANDARD PLATE) was “inactive; negative”, the mutagenic call (Test System: AMES SALMONELLA TYPHIMURIUM, Strain/Indicator: TA1537, Metabolic Activation: RAT, LIVER, S-9, AROCLOR 1254, Method: STANDARD PLATE) was “inactive; negative” and the mutagenic call (Test System: AMES SALMONELLA TYPHIMURIUM, Strain/Indicator: TA1538, Metabolic Activation: NONE, Method: STANDARD PLATE) was “inactive; negative”. The mutagenic call (Test System: AMES SALMONELLA TYPHIMURIUM, Strain/Indicator: TA1538, Metabolic Activation: RAT, LIVER, S-9, AROCLOR 1254, Method: STANDARD PLATE) was “active; positive”.
